Experiments:
iNOS (Type 2) = iNOS (Type 2) (Rattus norvegicus, UniProt Q06518); experiment: biochemical; type: biochemical
E-cNOS (Type 3) = target: T1, E-cNOS (Type 3) (Bos taurus, UniProt P29473); experiment: biochemical; conditions: mean of one to four independent experiments; crude enzyme, 100 nM L-[3H]arginine; read-out: IC50 value, E-cNOS (Type 3)
T1 construct: the resulting supernatant was used as the crude enzyme sample of E-cNOS; endogenous in cells; host or cells: CPAE (cow pulmonary arterial endothelium cells), 1% Triton X-100 extract, 100,000 x g supernatant
Protocol: The crude enzyme sample of E-cNOS was prepared by the following procedure. A cow pulmonary arterial endothielium cell (CPAE) was cultured in a MEM medium containing 20% FBS. […] A suitable amount of Ca- and Mg-free phosphate buffer (pH 7.4) was added to the precipitating cells and they were centrifuged at 1,000 rpm for 10 min. The same step was repeated to wash the cells which, upon addition of 50 mM Tris-HCl (pH 7.4) containing 1% Triton X-100 and 1 mM DTT, were left to stand in ice for 1 h. Subsequently, the mixture was homogenized for 3 min and kept in ice for 30 min with occasional stirring. Finally, the mixture was centrifuged at 100,000×g for 60 min and the resulting supernatant was used as the crude enzyme sample of E-cNOS.
The reaction was started by addition of L-[^3H]arginine and following incubation at 37° C. for 10 min, the reaction was terminated by addition of 2 ml of 50 mM Tris-HCl (pH 5.5) containing 1 mM EDTA and placing the mixture on ice. The reaction solution was passed through a cation-exchange resin column (Dowex AG50WX-8, Na^+ form, 3.2 ml) to separate the reaction product L-[^3H]citrulline from the unreacted residual substrate L-[^3H]arginine. The eluate was combined with another eluate resulting from the passage of a given amount of distilled water through the column and put into a minivial for recovery of L-[^3H]citrulline. Thereafter, a scintillation fluid was added and the contained radioactivity was measured with a liquid scintillation counter to determine the amount of L-[^3H]citrulline.
The activity of N-cNOS or E-cNOS was determined by subtracting the activity as detected in the absence of CaCl2 and calmodulin from the activity as detected in the presence of CaCl2 and calmodulin. […] The protein concentration of each crude enzyme sample was determined with a micro-assay kit of Biorad Co. Each experiment was conducted in a duplicate.

N-cNOS = N-cNOS (Homo sapiens, UniProt P29475); conditions: literature reports; cited from earlier work
iNOS = iNOS (Homo sapiens, UniProt P35228); conditions: literature reports; cited from earlier work
Chain of iNOS (P35228 whole entry): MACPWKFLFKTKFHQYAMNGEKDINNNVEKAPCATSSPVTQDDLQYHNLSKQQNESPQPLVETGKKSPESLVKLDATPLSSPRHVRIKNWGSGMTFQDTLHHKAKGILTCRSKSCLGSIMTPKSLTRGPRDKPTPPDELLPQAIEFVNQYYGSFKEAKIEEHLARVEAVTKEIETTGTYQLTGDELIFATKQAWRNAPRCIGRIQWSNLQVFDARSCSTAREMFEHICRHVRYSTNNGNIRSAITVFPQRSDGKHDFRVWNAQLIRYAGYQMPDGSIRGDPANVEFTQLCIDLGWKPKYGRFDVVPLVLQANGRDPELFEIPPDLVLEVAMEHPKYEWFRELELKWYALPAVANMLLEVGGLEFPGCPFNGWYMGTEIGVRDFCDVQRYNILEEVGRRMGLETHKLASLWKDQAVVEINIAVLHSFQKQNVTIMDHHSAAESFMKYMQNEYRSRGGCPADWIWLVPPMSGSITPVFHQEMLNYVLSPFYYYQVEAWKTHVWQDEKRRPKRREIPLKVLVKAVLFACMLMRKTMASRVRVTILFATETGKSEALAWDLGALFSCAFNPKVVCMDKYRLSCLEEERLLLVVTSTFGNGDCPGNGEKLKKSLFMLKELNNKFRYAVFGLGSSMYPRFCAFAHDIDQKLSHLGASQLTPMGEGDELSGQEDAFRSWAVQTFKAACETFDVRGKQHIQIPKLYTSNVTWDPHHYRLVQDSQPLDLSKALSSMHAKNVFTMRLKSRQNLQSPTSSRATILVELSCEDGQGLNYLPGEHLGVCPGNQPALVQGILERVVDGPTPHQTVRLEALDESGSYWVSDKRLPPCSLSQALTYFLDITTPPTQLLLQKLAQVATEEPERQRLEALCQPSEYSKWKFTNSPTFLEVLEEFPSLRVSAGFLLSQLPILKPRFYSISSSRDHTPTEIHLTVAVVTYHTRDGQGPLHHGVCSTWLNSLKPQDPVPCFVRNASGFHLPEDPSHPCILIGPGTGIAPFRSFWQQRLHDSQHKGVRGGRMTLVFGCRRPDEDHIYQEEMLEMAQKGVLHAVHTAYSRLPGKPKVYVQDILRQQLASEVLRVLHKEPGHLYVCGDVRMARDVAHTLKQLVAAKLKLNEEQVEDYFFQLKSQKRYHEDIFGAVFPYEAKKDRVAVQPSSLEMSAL

Chain of iNOS (Type 2) (Q06518 whole entry, looked up): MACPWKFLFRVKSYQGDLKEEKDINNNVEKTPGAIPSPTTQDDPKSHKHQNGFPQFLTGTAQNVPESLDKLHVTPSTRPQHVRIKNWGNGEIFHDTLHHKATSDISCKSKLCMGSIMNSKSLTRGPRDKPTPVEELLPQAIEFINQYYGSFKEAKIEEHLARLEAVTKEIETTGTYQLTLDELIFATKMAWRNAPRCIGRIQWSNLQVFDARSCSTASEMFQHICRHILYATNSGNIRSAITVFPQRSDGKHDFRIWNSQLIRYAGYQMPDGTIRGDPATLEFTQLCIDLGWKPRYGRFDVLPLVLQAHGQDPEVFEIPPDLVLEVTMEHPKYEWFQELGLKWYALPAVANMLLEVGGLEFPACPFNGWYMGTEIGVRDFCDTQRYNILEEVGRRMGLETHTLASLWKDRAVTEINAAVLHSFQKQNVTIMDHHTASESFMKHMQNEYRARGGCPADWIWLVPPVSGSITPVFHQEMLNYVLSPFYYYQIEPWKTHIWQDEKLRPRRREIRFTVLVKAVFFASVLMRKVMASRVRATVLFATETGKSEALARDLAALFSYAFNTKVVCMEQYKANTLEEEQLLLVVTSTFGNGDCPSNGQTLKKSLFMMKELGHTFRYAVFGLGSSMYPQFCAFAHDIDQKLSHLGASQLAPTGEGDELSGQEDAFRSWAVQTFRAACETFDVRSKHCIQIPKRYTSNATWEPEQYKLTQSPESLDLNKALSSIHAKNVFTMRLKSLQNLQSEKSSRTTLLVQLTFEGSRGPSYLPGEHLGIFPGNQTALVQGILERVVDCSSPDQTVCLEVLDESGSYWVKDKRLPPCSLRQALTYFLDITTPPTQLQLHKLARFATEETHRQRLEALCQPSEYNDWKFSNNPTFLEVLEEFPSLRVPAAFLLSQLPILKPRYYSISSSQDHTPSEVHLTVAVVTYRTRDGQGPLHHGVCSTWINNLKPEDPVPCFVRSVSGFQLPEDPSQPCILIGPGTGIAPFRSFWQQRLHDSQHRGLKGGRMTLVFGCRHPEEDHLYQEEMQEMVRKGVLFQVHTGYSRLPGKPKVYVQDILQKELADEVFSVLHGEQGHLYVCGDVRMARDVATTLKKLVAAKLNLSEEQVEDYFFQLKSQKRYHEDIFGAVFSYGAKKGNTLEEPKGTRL
Chain of N-cNOS (P29475 whole entry): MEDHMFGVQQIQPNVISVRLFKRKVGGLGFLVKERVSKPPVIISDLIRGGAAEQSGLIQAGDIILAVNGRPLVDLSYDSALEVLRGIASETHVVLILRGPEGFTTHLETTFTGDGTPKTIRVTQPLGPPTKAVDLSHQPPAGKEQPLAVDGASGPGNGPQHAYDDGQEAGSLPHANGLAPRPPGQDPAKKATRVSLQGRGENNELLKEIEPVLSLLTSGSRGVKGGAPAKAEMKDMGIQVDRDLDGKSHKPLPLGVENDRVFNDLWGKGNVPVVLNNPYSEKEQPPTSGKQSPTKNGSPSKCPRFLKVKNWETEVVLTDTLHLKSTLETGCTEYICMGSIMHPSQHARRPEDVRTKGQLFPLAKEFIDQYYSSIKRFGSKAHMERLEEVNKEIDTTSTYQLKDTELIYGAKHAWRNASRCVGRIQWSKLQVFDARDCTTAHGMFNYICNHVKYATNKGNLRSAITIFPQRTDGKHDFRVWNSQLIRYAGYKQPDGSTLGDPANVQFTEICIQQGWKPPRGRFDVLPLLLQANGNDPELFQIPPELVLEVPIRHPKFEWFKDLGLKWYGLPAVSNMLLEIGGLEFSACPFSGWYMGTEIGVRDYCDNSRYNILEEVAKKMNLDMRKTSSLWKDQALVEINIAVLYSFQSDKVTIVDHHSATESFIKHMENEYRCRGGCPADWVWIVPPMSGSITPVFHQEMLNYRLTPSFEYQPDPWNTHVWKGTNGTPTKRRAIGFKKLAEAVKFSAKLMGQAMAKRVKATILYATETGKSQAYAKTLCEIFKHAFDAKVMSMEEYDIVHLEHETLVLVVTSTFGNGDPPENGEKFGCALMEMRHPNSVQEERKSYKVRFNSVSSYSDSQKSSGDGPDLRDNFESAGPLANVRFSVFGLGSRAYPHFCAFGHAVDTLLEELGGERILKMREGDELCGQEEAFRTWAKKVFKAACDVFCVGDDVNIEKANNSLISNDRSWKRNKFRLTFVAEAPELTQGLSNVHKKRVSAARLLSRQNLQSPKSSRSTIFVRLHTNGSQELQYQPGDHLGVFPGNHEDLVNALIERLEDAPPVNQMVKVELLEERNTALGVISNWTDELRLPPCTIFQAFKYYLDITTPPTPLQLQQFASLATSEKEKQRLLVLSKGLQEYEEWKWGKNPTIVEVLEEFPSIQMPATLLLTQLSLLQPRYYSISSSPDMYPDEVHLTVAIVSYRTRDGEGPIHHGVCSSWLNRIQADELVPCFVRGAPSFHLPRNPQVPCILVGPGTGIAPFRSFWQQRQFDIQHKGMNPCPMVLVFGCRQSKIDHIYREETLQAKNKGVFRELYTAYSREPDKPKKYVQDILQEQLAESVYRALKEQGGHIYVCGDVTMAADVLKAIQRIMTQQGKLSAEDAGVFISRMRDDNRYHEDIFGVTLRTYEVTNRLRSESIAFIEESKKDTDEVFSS
T1 sequence (P29473 2-1205): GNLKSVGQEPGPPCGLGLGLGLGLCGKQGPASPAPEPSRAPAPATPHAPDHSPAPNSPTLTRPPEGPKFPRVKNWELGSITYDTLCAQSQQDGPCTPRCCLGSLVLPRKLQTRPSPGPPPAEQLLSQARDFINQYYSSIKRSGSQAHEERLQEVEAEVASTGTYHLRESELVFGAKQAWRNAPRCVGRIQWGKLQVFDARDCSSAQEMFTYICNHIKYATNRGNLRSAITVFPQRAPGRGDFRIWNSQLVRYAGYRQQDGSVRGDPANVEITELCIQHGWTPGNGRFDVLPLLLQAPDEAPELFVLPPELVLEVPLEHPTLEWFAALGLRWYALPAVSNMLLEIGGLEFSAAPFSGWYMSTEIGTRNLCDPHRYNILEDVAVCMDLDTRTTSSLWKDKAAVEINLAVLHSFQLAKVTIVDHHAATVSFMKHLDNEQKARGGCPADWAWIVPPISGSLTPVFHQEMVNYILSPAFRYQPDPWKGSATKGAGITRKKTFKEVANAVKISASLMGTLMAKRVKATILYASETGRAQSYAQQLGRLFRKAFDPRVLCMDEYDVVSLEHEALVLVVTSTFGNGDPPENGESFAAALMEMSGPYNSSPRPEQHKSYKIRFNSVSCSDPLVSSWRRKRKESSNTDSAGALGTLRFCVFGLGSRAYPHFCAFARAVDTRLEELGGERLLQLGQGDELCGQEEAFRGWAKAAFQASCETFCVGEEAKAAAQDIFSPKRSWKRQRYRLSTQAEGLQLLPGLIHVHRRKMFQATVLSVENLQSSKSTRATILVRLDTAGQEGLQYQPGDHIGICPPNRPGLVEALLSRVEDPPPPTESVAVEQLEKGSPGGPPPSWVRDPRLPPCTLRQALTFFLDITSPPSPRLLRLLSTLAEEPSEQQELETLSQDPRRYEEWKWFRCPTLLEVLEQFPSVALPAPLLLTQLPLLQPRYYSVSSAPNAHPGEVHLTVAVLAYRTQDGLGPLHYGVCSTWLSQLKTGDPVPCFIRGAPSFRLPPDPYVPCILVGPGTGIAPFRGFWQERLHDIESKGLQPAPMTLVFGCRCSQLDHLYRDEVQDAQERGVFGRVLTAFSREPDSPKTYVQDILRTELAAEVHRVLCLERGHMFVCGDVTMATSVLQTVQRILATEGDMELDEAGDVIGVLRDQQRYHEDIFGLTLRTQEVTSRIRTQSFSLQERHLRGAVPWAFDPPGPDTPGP

Row | Compound | Ratio of IC50 values E-cNOS/iNOS (iNOS (Type 2)) | iNOS inhibitory potency compared with the existing NOS inhibitors (L-MIN) (iNOS (Type 2); conclusion from Tables 49, 50 and 51) | IC50 (iNOS (Type 2); mean of one to four independent experiments, crude enzyme, 100 nM L-[3H]arginine, without CaCl2 and calmodulin, read-out: IC50 value, iNOS (Type 2)) [nM] | IC50 (E-cNOS (Type 3)) [nM] | reported selectivity for N-cNOS (N-cNOS) | reported selectivity for iNOS (iNOS)
1 | CSC(=N)NCCC[C@H](N)C(=O)O [L-MIN, S-methyl-L-thiocitrulline, reference compound] | 0.6 | the strongest iNOS inhibitory activity in the existing NOS inhibitors | 248 | 152 | selectivity for N-cNOS | –
2 | N=C(N)NN [AG, aminoguanidine] | – | – | – | – | – | selectivity for iNOS

— patent publication US6534546B1 (Chugai Seiyaku Kabushiki Kaisha, priority 1994, dated 2003)
